Results published in ChEMBL document CHEMBL1201862, “PubChem BioAssay data set” (2004).
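Each compound was tested at five concentrations against cells in 96-well plates for 48 hours. GI50: concentration for 50% inhibition of growth.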 Calls of active or inactive are those of the source. Rule as the data show it: active = GI50 up to about 1.1 µM and inactive = higher.

What was measured:
Assay in all cases: DTP human tumour cell line panel, 48 h
M14 = test system: M14
RXF 393 = test system: RXF 393
OVCAR-8 = test system: OVCAR-8
SW-620 = test system: SW-620
KM12 = test system: KM12
SNB-19 = test system: SNB-19
HOP-62 = test system: HOP-62
UO-31 = test system: UO-31
OVCAR-5 = test system: OVCAR-5
SK-MEL-2 = test system: SK-MEL-2
Malme-3M = test system: Malme-3M
EKVX = test system: EKVX
SN12C = test system: SN12C
A498 = test system: A498

SMILES	GI50 (M14)	GI50 (RXF 393)	GI50 (OVCAR-8)	GI50 (SW-620)	GI50 (KM12)	GI50 (SNB-19)	GI50 (HOP-62)	GI50 (UO-31)	GI50 (OVCAR-5)	GI50 (SK-MEL-2)	GI50 (Malme-3M)	GI50 (EKVX)	GI50 (SN12C)	GI50 (A498)
NC(=O)c1ncn(CCN2CCN(C(=O)NCCCCCCNC(=O)N3CCN(CCn4cnc(C(N)=O)c4N)CC3)CC2)c1N	> 100 µM (inactive)	> 100 µM (inactive)	> 100 µM (inactive)	> 100 µM (inactive)	> 100 µM (inactive)	> 100 µM (inactive)	> 100 µM (inactive)	> 100 µM (inactive)	> 100 µM (inactive)	> 100 µM (inactive)	> 100 µM (inactive)	> 100 µM (inactive)	> 100 µM (inactive)	
O=C1C(=O)N(c2ccc(Cl)c(Cl)c2)C(=O)C(=O)C1c1nc2ccccc2s1	> 100 µM (inactive)	> 100 µM (inactive)	56.5 µM (inactive)	> 100 µM (inactive)		44 µM (inactive)	> 100 µM (inactive)	> 100 µM (inactive)	> 100 µM (inactive)	> 100 µM (inactive)	> 100 µM (inactive)	> 100 µM (inactive)	> 100 µM (inactive)	> 100 µM (inactive)
CCC1=C(C)/C(=C/c2[nH]c(CBr)c(CC)c2C)N=C1CBr	16.5 µM (inactive)	12.1 µM (inactive)	7.23 µM (inactive)	12.2 µM (inactive)	11.6 µM (inactive)	16.4 µM (inactive)	15 µM (inactive)	3.52 µM (inactive)	> 10 µM (inactive)	22.2 µM (inactive)	20.7 µM (inactive)	21.7 µM (inactive)	10 µM (inactive)	
COc1ccc(C(N)=O)c(OC)c1OCc1ccccc1	> 100 µM (inactive)	0.15 µM (active)	> 100 µM (inactive)	> 100 µM (inactive)	> 100 µM (inactive)	> 100 µM (inactive)	> 100 µM (inactive)	> 100 µM (inactive)	> 100 µM (inactive)	> 100 µM (inactive)		> 100 µM (inactive)	> 100 µM (inactive)	> 100 µM (inactive)
N#CNCC(COCc1ccccc1)c1ccccc1 (configuration not stated)	> 100 µM (inactive)	99.1 µM (inactive)	> 100 µM (inactive)	70.5 µM (inactive)		> 100 µM (inactive)	> 100 µM (inactive)	46.1 µM (inactive)		43.5 µM (inactive)	> 100 µM (inactive)	> 100 µM (inactive)	> 100 µM (inactive)	> 100 µM (inactive)
C=C1CCC2C(C)(CO)C(O)CCC2(C)C1CC(O)/C(=C/CO)C(=O)O (configuration not stated)	> 100 µM (inactive)	> 100 µM (inactive)	> 100 µM (inactive)	> 100 µM (inactive)	> 100 µM (inactive)	> 100 µM (inactive)	> 100 µM (inactive)	> 100 µM (inactive)	> 100 µM (inactive)	> 100 µM (inactive)	> 100 µM (inactive)		> 100 µM (inactive)	> 100 µM (inactive)
CC1=C(C(=O)Nc2ccccc2)C(c2ccccc2Cl)C(C(=O)Nc2ccccc2)=C(C)N1	16.6 µM (inactive)		29.4 µM (inactive)	30.7 µM (inactive)		24.8 µM (inactive)	20.1 µM (inactive)	35.6 µM (inactive)	24.3 µM (inactive)	18 µM (inactive)	20 µM (inactive)	14.3 µM (inactive)	18.9 µM (inactive)	27.8 µM (inactive)
CN(C)CC1CCC/C1=N/OC(=O)c1ccccc1 (configuration not stated)	> 100 µM (inactive)	> 100 µM (inactive)	> 100 µM (inactive)	> 100 µM (inactive)			> 100 µM (inactive)	> 100 µM (inactive)	> 100 µM (inactive)	> 100 µM (inactive)			> 100 µM (inactive)	> 100 µM (inactive)
O=C(CC1(O)C(=O)Nc2c(Cl)cccc21)c1ccccc1 (configuration not stated)	> 100 µM (inactive)	> 100 µM (inactive)	> 100 µM (inactive)	76.4 µM (inactive)	> 100 µM (inactive)	> 100 µM (inactive)	> 100 µM (inactive)	> 100 µM (inactive)	> 100 µM (inactive)	> 100 µM (inactive)	> 100 µM (inactive)	> 100 µM (inactive)	> 100 µM (inactive)	
CCOc1ccc(OCC)c([P+](c2ccccc2)(c2ccccc2)c2ccccc2)c1	0.71 µM (active)	0.968 µM (active)	0.358 µM (active)	0.44 µM (active)	0.178 µM (active)	0.378 µM (active)	1.07 µM (active)		0.407 µM (active)		1.28 µM (inactive)	1.1 µM (active)	0.294 µM (active)	0.785 µM (active)
CN1C(c2ccccc2)CC(=Nc2ccccc2)CC1c1ccccc1 (configuration not stated)	13.5 µM (inactive)	16.6 µM (inactive)	6.97 µM (inactive)	10.8 µM (inactive)		14.3 µM (inactive)	18 µM (inactive)	20.7 µM (inactive)			10.8 µM (inactive)	16.2 µM (inactive)		
Cc1nc2c(=O)n(C)c(=O)nc-2n(-c2ccc(Cl)cc2)c1C	82.6 µM (inactive)		> 100 µM (inactive)	> 100 µM (inactive)	> 100 µM (inactive)	> 100 µM (inactive)	> 100 µM (inactive)	80.4 µM (inactive)	> 100 µM (inactive)	> 100 µM (inactive)	> 100 µM (inactive)	> 100 µM (inactive)	> 100 µM (inactive)	> 100 µM (inactive)
COc1cccc(-n2c3nc(=O)n(C)c(=O)c-3nc3ccccc32)c1	11.7 µM (inactive)		14.6 µM (inactive)	5.09 µM (inactive)	27.1 µM (inactive)	22 µM (inactive)	37.9 µM (inactive)	49.8 µM (inactive)	19.2 µM (inactive)	19.6 µM (inactive)	14.3 µM (inactive)	29.8 µM (inactive)	13.7 µM (inactive)	34.5 µM (inactive)
C/C=C/CC(S(=O)(=O)c1ccccc1)S(=O)(=O)c1ccccc1	> 100 µM (inactive)	> 100 µM (inactive)	> 100 µM (inactive)	> 100 µM (inactive)	> 100 µM (inactive)	> 100 µM (inactive)	85.5 µM (inactive)	> 100 µM (inactive)	> 100 µM (inactive)	> 100 µM (inactive)		> 100 µM (inactive)	> 100 µM (inactive)	> 100 µM (inactive)
CCOc1ccccc1NC(=O)CC1Sc2ccccc2NC1=O (configuration not stated)	45.8 µM (inactive)	> 100 µM (inactive)	58.3 µM (inactive)	49.2 µM (inactive)	38.1 µM (inactive)	> 100 µM (inactive)	73.3 µM (inactive)	61.1 µM (inactive)	> 100 µM (inactive)	45.8 µM (inactive)	52.7 µM (inactive)	41.5 µM (inactive)	> 100 µM (inactive)	
C/C(=N\Nc1nnc(S)n1N)c1c(O)cc(C)oc1=O	> 100 µM (inactive)		> 100 µM (inactive)	> 100 µM (inactive)	> 100 µM (inactive)	> 100 µM (inactive)	> 100 µM (inactive)	> 100 µM (inactive)		> 100 µM (inactive)	> 100 µM (inactive)	> 100 µM (inactive)	> 100 µM (inactive)	> 100 µM (inactive)
